From PubChem BioAssay AID1963833 (Molecular Pharmacology Branch, DTP, NCI, 2024)

System: 883617-216-R-J1-PDC complex spheroid viability
Assay: Anticancer human tumor 883617-216-R-J1-PDC patient-derived bladder carcinoma cell line growth inhibition [POLQ]
Conditions: for IC50: curve of first compound; for viability, T/C: stronger effect = lower value
Procedure, shortened: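 PDC + HUVEC + MSC complex spheroids; POLQ inhibitors ± partner drugs; top conc. at/near clinical Cmax, else 10 microM (SN-38 1 microM), half-log dilutions; 37 degrees C, 5% CO2.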
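Also: spheroids exposed to compounds for seven days before readout.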
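For viability, T/C in this document: 100% = DMSO vehicle control viability.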

## CC(=O)O[C@H]1C(=O)[C@@]2(C)[C@H]([C@H](OC(=O)c3ccccc3)[C@]3(O)C[C@H](OC(=O)[C@H](O)[C@@H](NC(=O)c4ccccc4)c4ccccc4)C(C)=C1C3(C)C)[C@]1(OC(C)=O)CO[C@@H]1C[C@@H]2O + Cc1cccc(N(C)C(=O)C2C(O)CCN2c2nc(C)cc(C(F)(F)F)c2C#N)c1
Second compound 0.0316 µM
  IC50: < 9.49 nM
Second compound 0.1 µM
  IC50: < 9.49 nM
Second compound 0.316 µM
  IC50: 10.4 nM
Second compound 1 µM
  IC50: < 9.49 nM
Second compound 3.16 µM
  IC50: < 9.49 nM
Second compound 10 µM
  IC50: 11.1 nM
Second compound 0.0316 µM, first compound 0.00949 µM
  viability, T/C: 40.2%
Second compound 0.0316 µM, first compound 0.03 µM
  viability, T/C: 22.1%
Second compound 0.0316 µM, first compound 0.0949 µM
  viability, T/C: 22%
Second compound 0.0316 µM, first compound 0.3 µM
  viability, T/C: 19.8%
Second compound 0.0316 µM, first compound 0.949 µM
  viability, T/C: 18.5%
Second compound 0.0316 µM, first compound 3 µM
  viability, T/C: 23.1%
Second compound 0.1 µM, first compound 0.00949 µM
  viability, T/C: 46.9%
Second compound 0.1 µM, first compound 0.03 µM
  viability, T/C: 29.2%
Second compound 0.1 µM, first compound 0.0949 µM
  viability, T/C: 21.6%
Second compound 0.1 µM, first compound 0.3 µM
  viability, T/C: 27.5%
Second compound 0.1 µM, first compound 0.949 µM
  viability, T/C: 24.6%
Second compound 0.1 µM, first compound 3 µM
  viability, T/C: 26.7%
Second compound 0.316 µM, first compound 0.00949 µM
  viability, T/C: 52.2%
Second compound 0.316 µM, first compound 0.03 µM
  viability, T/C: 25.1%
Second compound 0.316 µM, first compound 0.0949 µM
  viability, T/C: 24.4%
Second compound 0.316 µM, first compound 0.3 µM
  viability, T/C: 23.9%
Second compound 0.316 µM, first compound 0.949 µM
  viability, T/C: 20.8%
Second compound 0.316 µM, first compound 3 µM
  viability, T/C: 24.8%
Second compound 1 µM, first compound 0.00949 µM
  viability, T/C: 45.4%
Second compound 1 µM, first compound 0.03 µM
  viability, T/C: 29.2%
Second compound 1 µM, first compound 0.0949 µM
  viability, T/C: 22.4%
Second compound 1 µM, first compound 0.3 µM
  viability, T/C: 18.9%
Second compound 1 µM, first compound 0.949 µM
  viability, T/C: 26.1%
Second compound 1 µM, first compound 3 µM
  viability, T/C: 28.2%
Second compound 3.16 µM, first compound 0.00949 µM
  viability, T/C: 44.1%
Second compound 3.16 µM, first compound 0.03 µM
  viability, T/C: 24.4%
Second compound 3.16 µM, first compound 0.0949 µM
  viability, T/C: 32.5%
Second compound 3.16 µM, first compound 0.3 µM
  viability, T/C: 27.6%
Second compound 3.16 µM, first compound 0.949 µM
  viability, T/C: 41.8%
Second compound 3.16 µM, first compound 3 µM
  viability, T/C: 28.9%
Second compound 10 µM, first compound 0.00949 µM
  viability, T/C: 54.7%
Second compound 10 µM, first compound 0.03 µM
  viability, T/C: 19.3%
Second compound 10 µM, first compound 0.0949 µM
  viability, T/C: 21.2%
Second compound 10 µM, first compound 0.3 µM
  viability, T/C: 25.3%
Second compound 10 µM, first compound 0.949 µM
  viability, T/C: 21.4%
Second compound 10 µM, first compound 3 µM
  viability, T/C: 15.6%

## CC[C@@]1(O)C(=O)OCc2c1cc1n(c2=O)Cc2cc3c(CN(C)C)c(O)ccc3nc2-1 + Cc1cccc(N(C)C(=O)C2C(O)CCN2c2nc(C)cc(C(F)(F)F)c2C#N)c1
Second compound 0.0316 µM
  IC50: > 100 nM
Second compound 0.1 µM
  IC50: > 100 nM
Second compound 0.316 µM
  IC50: > 100 nM
Second compound 1 µM
  IC50: > 100 nM
Second compound 3.16 µM
  IC50: > 100 nM
Second compound 10 µM
  IC50: > 100 nM
Second compound 0.0316 µM, first compound 0.000316 µM
  viability, T/C: 96.3%
Second compound 0.0316 µM, first compound 0.001 µM
  viability, T/C: 85.8%
Second compound 0.0316 µM, first compound 0.00316 µM
  viability, T/C: 96.1%
Second compound 0.0316 µM, first compound 0.01 µM
  viability, T/C: 79.3%
Second compound 0.0316 µM, first compound 0.0316 µM
  viability, T/C: 57.5%
Second compound 0.0316 µM, first compound 0.1 µM
  viability, T/C: 54.1%
Second compound 0.1 µM, first compound 0.000316 µM
  viability, T/C: 101%
Second compound 0.1 µM, first compound 0.001 µM
  viability, T/C: 93.3%
Second compound 0.1 µM, first compound 0.00316 µM
  viability, T/C: 83.7%
Second compound 0.1 µM, first compound 0.01 µM
  viability, T/C: 81.5%
Second compound 0.1 µM, first compound 0.0316 µM
  viability, T/C: 58%
Second compound 0.1 µM, first compound 0.1 µM
  viability, T/C: 61.4%
Second compound 0.316 µM, first compound 0.000316 µM
  viability, T/C: 102%
Second compound 0.316 µM, first compound 0.001 µM
  viability, T/C: 106%
Second compound 0.316 µM, first compound 0.00316 µM
  viability, T/C: 87.6%
Second compound 0.316 µM, first compound 0.01 µM
  viability, T/C: 68.7%
Second compound 0.316 µM, first compound 0.0316 µM
  viability, T/C: 64.6%
Second compound 0.316 µM, first compound 0.1 µM
  viability, T/C: 64.4%
Second compound 1 µM, first compound 0.000316 µM
  viability, T/C: 99.5%
Second compound 1 µM, first compound 0.001 µM
  viability, T/C: 113%
Second compound 1 µM, first compound 0.00316 µM
  viability, T/C: 97.1%
Second compound 1 µM, first compound 0.01 µM
  viability, T/C: 83.1%
Second compound 1 µM, first compound 0.0316 µM
  viability, T/C: 63.8%
Second compound 1 µM, first compound 0.1 µM
  viability, T/C: 62.8%
Second compound 3.16 µM, first compound 0.000316 µM
  viability, T/C: 100%
Second compound 3.16 µM, first compound 0.001 µM
  viability, T/C: 103%
Second compound 3.16 µM, first compound 0.00316 µM
  viability, T/C: 98%
Second compound 3.16 µM, first compound 0.01 µM
  viability, T/C: 88.4%
Second compound 3.16 µM, first compound 0.0316 µM
  viability, T/C: 66.9%
Second compound 3.16 µM, first compound 0.1 µM
  viability, T/C: 61.8%
Second compound 10 µM, first compound 0.000316 µM
  viability, T/C: 112%
Second compound 10 µM, first compound 0.001 µM
  viability, T/C: 94.6%
Second compound 10 µM, first compound 0.00316 µM
  viability, T/C: 105%
Second compound 10 µM, first compound 0.01 µM
  viability, T/C: 79.5%
Second compound 10 µM, first compound 0.0316 µM
  viability, T/C: 67.7%
Second compound 10 µM, first compound 0.1 µM
  viability, T/C: 71%
